Values of other authors as cited in paper PMC4274137 (HIV/AIDS (Auckland, N.Z.), 2014).
Read-outs that look alike come from different tables or passages of the source.

Key:
[1] = tested on: HIV patients; conditions: DAD study
[2] = tested on: HIV patients; conditions: HIV patients in France
[3] = tested on: Asian patients with HIV
[4] = tested on: HIV patients
[5] = tested on: HIV patients; conditions: Danish study
[6] = tested on: HIV dyslipidemia
[7] = tested on: HIV patients; remark: listed apart in the source
[8] = HIV dyslipidemia, ezetimibe monotherapy or combined with statin

Nc1nc(NC2CC2)c2ncn([C@H]3C=C[C@@H](CO)C3)c2n1 [abacavir]
risk of myocardial infarction [1]: associated with independent risk of myocardial infarction

Cc1cn([C@H]2C=C[C@@H](CO)O2)c(=O)[nH]c1=O [stavudine]
risk factor for hypothyroidism [2]: risk factors | association of treatment with NAFLD [3]: not with HIV-related factors

C[C@H](Cn1cnc2c(N)ncnc21)OCP(=O)(O)O [tenofovir]
high triglycerides and lipoatrophy (NRTI effect) ([4]; compared with other NRTIs): this effect is less seen | estimated glomerular filtration rate (eGFR) [5]: reduced estimated glomerular filtration rate

O=C1Nc2ccc(Cl)cc2[C@@](C#CC2CC2)(C(F)(F)F)O1 [efavirenz]
total cholesterol and triglycerides ([4]; HIV patients on NNRTIs): associated with increase in total cholesterol and triglycerides

Nc1ccn([C@H]2CC[C@@H](CO)O2)c(=O)n1 [zalcitabine]
association of treatment with NAFLD [3]: not with HIV-related factors

O=C1[C@H](CC[C@H](O)c2ccc(F)cc2)[C@@H](c2ccc(O)cc2)N1c1ccc(F)cc1 [Ezetimibe]
lipid-lowering efficacy [6, 8]: effective | safety [7, 8]: safe

CC(C)OC(=O)C(C)(C)Oc1ccc(C(=O)c2ccc(Cl)cc2)cc1 [Fenofibrate]
efficacy in mixed dyslipidemia and hypertriglyceridemia ([6]; people with HIV infection): useful | safety ([7]; people with HIV infection): generally safe

O=C(O)c1cccnc1 [Niacin]
efficacy in improving lipid profile ([6]; HIV patients, two studies): effective | safety ([7]; HIV patients, two studies): safe
